The target of data set [1] is Glutamate receptor ionotropic, AMPA (Rattus norvegicus) (UniProt P19491+P19492+P19493+P19490). The experiment in a line: (§1) In vitro inhibition of binding of [3H]AMPA towards AMPA receptor in rat. As to conditions: concentration not given here; call rule not given here.
Data set [2] concerns Mus musculus. The experiment in a line: In vivo anticonvulsant effects in the electroshock induced convulsion in mice after 50 mg/kg intraperitoneal administration and 30 min pretreatment time. It is filed as functional.
A further data set addresses Glutamate NMDA receptor. The data set is described as follows: In vitro inhibition of binding of [3H]MDL-105519 towards glycine binding site of NMDA receptor in rat.
In data set [3] the target is Glutamate receptor ionotropic, AMPA (Rattus norvegicus, UniProt P19490+P19491+P19492+P19493). The data set is described as §1.
Data set [4] relates to Mus musculus. The experiment in a line: In vivo anticonvulsant effects on electroshock induced convulsion in mice after i.p. administration and 30 min pretreatment. Type of data set: functional. The following applies: ip.
Data set [5] addresses Glutamate receptor ionotropic, NMDA 1 (Rattus norvegicus) (UniProt P35439). The data set is described as follows: In vitro inhibition of binding of [3H]MDL-105,519 towards glycine binding site of NMDA receptor in rat. As to conditions: concentration not given here.
Data set [6] has the same target. The experiment in a line: In vitro inhibition of binding of [3H]MDL-105519 towards glycine binding site of NMDA receptor in rat at a concentration of 1 uM.
Data set [7] concerns Mus musculus. The data set is described as follows: In vivo anticonvulsant effects in the electroshock induced convulsion in mice after intraperitoneal administration and 2 hr pretreatment time. Type of data set: functional. The following applies: ip.
Data set [8] in a line: Partition coefficient (logP). The following applies: octanol/water. Type of data set: physicochemical.
In data set [9] the test system is Mus musculus. The data set is described as follows: In vivo anticonvulsant effects in the electroshock induced convulsion in mice after intraperitoneal administration and 1 hr pretreatment time. As to conditions: ip. It is filed as functional.
The test system of data set [10] is Mus musculus. The experiment in a line: In vivo anticonvulsant effects in the electroshock induced convulsion in mice after 50 mg/kg intraperitoneal administration and 1 hr pretreatment time. It is filed as functional.
The subject of data set [11] is Mus musculus. The experiment in a line: In vivo anticonvulsant effects in the electroshock induced convulsion in mice after intraperitoneal administration and 15 min pretreatment time. Type of data set: functional. As to conditions: ip.
In data set [12] the target is Glutamate receptor ionotropic, AMPA (Rattus norvegicus, UniProt P19491+P19492+P19493+P19490). The experiment in a line: In vitro inhibition of binding of [3H]-AMPA towards AMPA receptor in rat; No affinity.
Glutamate receptor ionotropic, AMPA (Rattus norvegicus, UniProt P19491+P19492+P19493+P19490), sequence (P19491 whole entry): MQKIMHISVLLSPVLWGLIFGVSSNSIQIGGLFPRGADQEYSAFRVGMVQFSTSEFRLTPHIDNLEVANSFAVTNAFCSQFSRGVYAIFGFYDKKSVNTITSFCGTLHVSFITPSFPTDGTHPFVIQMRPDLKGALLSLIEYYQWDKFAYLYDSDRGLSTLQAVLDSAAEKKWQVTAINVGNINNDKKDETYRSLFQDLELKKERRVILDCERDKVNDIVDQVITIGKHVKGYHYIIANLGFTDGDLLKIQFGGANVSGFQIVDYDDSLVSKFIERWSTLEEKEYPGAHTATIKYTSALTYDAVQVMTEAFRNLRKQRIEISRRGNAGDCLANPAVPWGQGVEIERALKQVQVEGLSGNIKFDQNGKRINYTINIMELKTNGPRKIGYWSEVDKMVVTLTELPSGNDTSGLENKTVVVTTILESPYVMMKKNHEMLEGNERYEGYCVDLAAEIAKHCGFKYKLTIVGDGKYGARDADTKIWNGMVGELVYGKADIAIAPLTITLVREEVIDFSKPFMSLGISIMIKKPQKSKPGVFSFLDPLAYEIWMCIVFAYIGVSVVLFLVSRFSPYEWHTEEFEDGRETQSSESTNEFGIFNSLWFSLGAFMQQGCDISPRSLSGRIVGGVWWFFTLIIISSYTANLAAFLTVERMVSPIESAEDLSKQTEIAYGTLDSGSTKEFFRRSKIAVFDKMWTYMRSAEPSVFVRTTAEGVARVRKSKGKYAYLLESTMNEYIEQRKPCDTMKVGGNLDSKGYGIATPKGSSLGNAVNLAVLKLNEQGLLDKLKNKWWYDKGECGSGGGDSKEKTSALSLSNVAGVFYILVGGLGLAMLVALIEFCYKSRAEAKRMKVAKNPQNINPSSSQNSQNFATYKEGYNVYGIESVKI
Glutamate receptor ionotropic, AMPA (Rattus norvegicus, UniProt P19491+P19492+P19493+P19490), sequence (P19492 whole entry): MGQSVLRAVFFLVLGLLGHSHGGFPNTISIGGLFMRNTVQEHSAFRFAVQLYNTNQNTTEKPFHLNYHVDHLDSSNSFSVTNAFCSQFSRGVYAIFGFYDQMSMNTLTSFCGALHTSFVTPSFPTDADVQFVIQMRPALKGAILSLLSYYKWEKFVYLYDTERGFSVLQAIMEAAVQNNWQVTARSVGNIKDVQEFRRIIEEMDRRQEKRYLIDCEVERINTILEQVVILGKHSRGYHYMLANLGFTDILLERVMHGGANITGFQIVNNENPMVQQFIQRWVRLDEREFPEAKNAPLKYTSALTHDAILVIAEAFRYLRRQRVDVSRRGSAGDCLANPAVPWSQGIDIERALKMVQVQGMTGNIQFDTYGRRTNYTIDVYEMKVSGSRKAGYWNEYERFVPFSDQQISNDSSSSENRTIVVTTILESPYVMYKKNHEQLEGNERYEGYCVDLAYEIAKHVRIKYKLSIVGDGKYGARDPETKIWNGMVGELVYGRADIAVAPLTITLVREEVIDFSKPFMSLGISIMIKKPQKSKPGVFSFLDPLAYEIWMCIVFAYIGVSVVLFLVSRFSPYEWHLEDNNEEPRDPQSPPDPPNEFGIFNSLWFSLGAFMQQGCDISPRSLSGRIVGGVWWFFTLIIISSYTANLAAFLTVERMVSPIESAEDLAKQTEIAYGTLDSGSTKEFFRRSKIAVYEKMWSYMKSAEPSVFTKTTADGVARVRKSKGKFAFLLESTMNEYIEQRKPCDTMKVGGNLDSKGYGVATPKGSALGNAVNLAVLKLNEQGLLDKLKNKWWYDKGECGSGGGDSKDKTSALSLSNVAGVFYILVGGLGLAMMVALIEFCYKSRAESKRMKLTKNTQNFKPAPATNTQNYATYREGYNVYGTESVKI
Glutamate receptor ionotropic, AMPA (Rattus norvegicus, UniProt P19491+P19492+P19493+P19490), sequence (P19493 whole entry): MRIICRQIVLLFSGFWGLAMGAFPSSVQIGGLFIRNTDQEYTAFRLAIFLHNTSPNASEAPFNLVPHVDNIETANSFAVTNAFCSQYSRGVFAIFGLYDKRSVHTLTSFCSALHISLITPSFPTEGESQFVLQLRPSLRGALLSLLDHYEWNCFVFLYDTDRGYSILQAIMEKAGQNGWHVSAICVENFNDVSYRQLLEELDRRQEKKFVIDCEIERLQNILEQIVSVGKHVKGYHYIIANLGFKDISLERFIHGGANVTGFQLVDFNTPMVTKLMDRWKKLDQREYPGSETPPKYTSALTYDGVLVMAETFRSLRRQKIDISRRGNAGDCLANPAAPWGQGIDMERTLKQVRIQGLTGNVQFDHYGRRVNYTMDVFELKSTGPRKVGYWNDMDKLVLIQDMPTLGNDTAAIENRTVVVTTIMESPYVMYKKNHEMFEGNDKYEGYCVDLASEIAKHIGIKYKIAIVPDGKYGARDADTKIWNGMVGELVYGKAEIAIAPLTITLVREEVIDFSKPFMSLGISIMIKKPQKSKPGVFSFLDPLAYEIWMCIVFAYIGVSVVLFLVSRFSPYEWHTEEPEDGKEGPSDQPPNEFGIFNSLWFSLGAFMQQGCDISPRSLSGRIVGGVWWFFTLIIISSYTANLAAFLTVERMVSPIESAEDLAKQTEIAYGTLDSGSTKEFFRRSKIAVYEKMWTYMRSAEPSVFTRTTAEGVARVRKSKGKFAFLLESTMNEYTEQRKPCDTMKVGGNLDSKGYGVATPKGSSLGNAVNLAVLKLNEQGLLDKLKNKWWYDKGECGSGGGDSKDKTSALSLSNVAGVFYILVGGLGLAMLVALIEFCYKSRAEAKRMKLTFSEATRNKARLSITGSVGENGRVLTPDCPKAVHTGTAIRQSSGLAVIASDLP
Glutamate receptor ionotropic, AMPA (Rattus norvegicus, UniProt P19491+P19492+P19493+P19490), sequence (P19490 whole entry): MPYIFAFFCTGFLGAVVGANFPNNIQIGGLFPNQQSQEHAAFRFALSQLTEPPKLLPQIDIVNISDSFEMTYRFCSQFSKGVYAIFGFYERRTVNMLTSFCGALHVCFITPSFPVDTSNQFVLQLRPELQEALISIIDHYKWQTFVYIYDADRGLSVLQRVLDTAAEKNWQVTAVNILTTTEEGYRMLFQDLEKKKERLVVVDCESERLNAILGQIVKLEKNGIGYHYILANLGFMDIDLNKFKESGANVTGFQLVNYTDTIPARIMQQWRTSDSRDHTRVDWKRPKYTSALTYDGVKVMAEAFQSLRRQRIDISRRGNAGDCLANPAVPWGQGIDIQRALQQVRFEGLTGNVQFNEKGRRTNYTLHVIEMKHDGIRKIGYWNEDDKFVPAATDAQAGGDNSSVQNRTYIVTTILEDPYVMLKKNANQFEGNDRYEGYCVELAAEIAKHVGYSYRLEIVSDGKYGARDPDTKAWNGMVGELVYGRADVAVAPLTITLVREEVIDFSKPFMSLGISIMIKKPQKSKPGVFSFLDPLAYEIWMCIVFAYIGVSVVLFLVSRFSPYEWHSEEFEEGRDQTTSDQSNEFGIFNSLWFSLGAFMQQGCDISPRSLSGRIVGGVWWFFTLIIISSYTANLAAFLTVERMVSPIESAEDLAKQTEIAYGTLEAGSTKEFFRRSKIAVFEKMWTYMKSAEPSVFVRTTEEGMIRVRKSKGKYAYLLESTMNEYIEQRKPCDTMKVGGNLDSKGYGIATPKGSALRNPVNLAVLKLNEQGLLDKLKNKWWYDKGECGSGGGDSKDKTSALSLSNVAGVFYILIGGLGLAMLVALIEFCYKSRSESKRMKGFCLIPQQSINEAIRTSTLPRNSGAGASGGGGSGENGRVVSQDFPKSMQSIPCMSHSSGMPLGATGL

For `CCC(NCc1cc(Br)cc2nc(O)c(O)nc12)P(=O)(O)O` (centres undefined), in [1], the inhibition (in general, the change of the read-out against control, counted positive when it falls) worked out at 16%. In addition, in the data set with Mus musculus [2], the Protection is 20%. In addition, on Glutamate NMDA receptor, the IC50 (in general, the midpoint of a concentration-inhibition curve) is 45 nM.
As for `O=c1[nH]c2cc([N+](=O)[O-])cc(CNCP(=O)(O)O)c2[nH]c1=O`, the IC50 in data set [3] stood at 290 nM; at Glutamate NMDA receptor, 1000 nM. Also, the ED50 (usually the dose at which the effect has come halfway, by size or by number of responders) with Mus musculus [4] came out at 7 mg/kg.
The like results for `C[C@H](NCc1cc(C(F)(F)F)cc2nc(O)c(O)nc12)P(=O)(O)O` were, in that order, 540 nM, 590 nM and 20 mg/kg.
In data set [3], `Br.CC(C)(NCc1cc([N+](=O)[O-])cc2nc(O)c(O)nc12)C(=O)O` yielded an IC50 of 290 nM. In the data set with Mus musculus [2], the Protection is on record as 0%. In data set [5], the inhibition is -9%.
Consider `O=C(O)CCCNCc1cc([N+](=O)[O-])cc2nc(O)c(O)nc12`, for which the IC50 in data set [3] is 610 nM; on Glutamate NMDA receptor, 9000 nM.
`C[C@H](NCc1cc([N+](=O)[O-])cc2nc(O)c(O)nc12)P(=O)(O)O` registered an IC50 in [3] of 380 nM. The ED50 in the data set with Mus musculus [4] is 8 mg/kg. The inhibition in [6] was 51%.
Regarding `Br.O=C(O)CCNCc1cc([N+](=O)[O-])cc2nc(O)c(O)nc12`, the IC50 in data set [3] came out at 380 nM; on Glutamate NMDA receptor, 19000 nM. In addition, in the data set with Mus musculus [4], the ED50 was determined as 35 mg/kg.
In [3], `C[C@@H](NCc1cc(Br)cc2nc(O)c(O)nc12)P(=O)(O)O` returned an IC50 of 3000 nM. Also, the ED50 worked out at 18 mg/kg in the data set with Mus musculus [7] and 12 mg/kg in the data set with Mus musculus [4].
Turning to `C[C@H](NCc1cc(Br)cc2nc(O)c(O)nc12)C(=O)O`, the IC50 stood at 4300 nM in [3] and 2200 nM on Glutamate NMDA receptor.
As to `Br.CCN(Cc1cc([N+](=O)[O-])cc2nc(O)c(O)nc12)CP(=O)(O)O`, in data set [3], the IC50 was determined as 120 nM. Also, the ED50 in the data set on Mus musculus [4] stood at 18 mg/kg. Further, the inhibition in data set [6] stood at 24%.
Take `Br.C[C@@H](NCc1cc([N+](=O)[O-])cc2nc(O)c(O)nc12)C(=O)O`: the concentration for half-maximal inhibition (IC50) in [3] was determined as 380 nM; on Glutamate NMDA receptor, 1300 nM. For the same compound, the Protection with Mus musculus [2] is 0%.
Regarding `C[C@H](NCc1cc(Br)cc2nc(O)c(O)nc12)P(=O)(O)O`, the IC50 in data set [3] was found to be 1400 nM. Besides, the ED50 with Mus musculus [4] stood at 43 mg/kg.
On to `O=C(O)CCNCc1cc(Br)cc2nc(O)c(O)nc12`, for which, in data set [3], the IC50 came to 3800 nM. In addition, the inhibition in data set [6] stood at 37%.
For the compound `Br.C[C@H](NCc1cc([N+](=O)[O-])cc2nc(O)c(O)nc12)C(=O)O`, in [8], the logP (commonly the decadic logarithm of the partition coefficient of the neutral form, usually between octanol and water) was -1.93. The results for the IC50 (in data set [3]; at Glutamate NMDA receptor) were 310 nM and 1700 nM, respectively. For the same compound, in the data set on Mus musculus [9], the ED50 was found to be 19 mg/kg. Besides, the Protection in the data set with Mus musculus [10] came out at 0%.
For the compound `O=C(O)CSCc1cc(Br)cc2nc(O)c(O)nc12`, the inhibition in [1] turned out to be 22%. Besides, the Protection with Mus musculus [10] turned out to be 0%. The same compound yielded an IC50 at Glutamate NMDA receptor of 120 nM.
In turn, `CCN(Cc1cc([N+](=O)[O-])cc2nc(O)c(O)nc12)[C@@H](C)P(=O)(O)O` displayed a logP in data set [8] of -3.5. Moreover, the IC50 in [3] worked out at 80 nM. In addition, the figures for the ED50 in the data set on Mus musculus [7] and with Mus musculus [4] were 18 mg/kg and 7 mg/kg, respectively.
Consider `O=C(O)COCc1cc([N+](=O)[O-])cc2nc(O)c(O)nc12`, for which the IC50 turned out to be 2000 nM in data set [3] and 310 nM on Glutamate NMDA receptor.
As to `Br.O=C(O)CNCc1cc([N+](=O)[O-])cc2nc(O)c(O)nc12`, the IC50 in data set [3] turned out to be 160 nM; on Glutamate NMDA receptor it was 760 nM. Besides, in the data set with Mus musculus [11], the ED50 turned out to be 32 mg/kg.
For `O=P(O)(O)CNCc1cc(Br)cc2nc(O)c(O)nc12`, the IC50 is 2400 nM in data set [3] and 100 nM on Glutamate NMDA receptor. The Protection in the data set on Mus musculus [2] is on record as 0%.
Take `C[C@H](CP(=O)(O)O)NCc1cc([N+](=O)[O-])cc2nc(O)c(O)nc12`: the IC50 in data set [3] was 200 nM. The ED50 with Mus musculus [4] was 9 mg/kg. For the same compound, the inhibition in [6] came to 6%.
For the compound `C[C@@H](NCc1cc(C(F)(F)F)cc2[nH]c(=O)c(=O)[nH]c12)P(=O)(O)O`, the IC50 in data set [3] worked out at 1200 nM; on Glutamate NMDA receptor, 6 nM. Besides, in the data set with Mus musculus [4], the ED50 is 8 mg/kg.
Take `O=P(O)(O)CNCc1cc(C(F)(F)F)cc2nc(O)c(O)nc12`: the IC50 stood at 2000 nM in [3] and 300 nM on Glutamate NMDA receptor. Further, in the data set on Mus musculus [4], the ED50 amounted to 30 mg/kg.
In [3], `COC(=O)C(C)(C)NCc1cc([N+](=O)[O-])cc2nc(O)c(O)nc12` registered an IC50 of 1900 nM. Moreover, the inhibition in data set [6] is -3%.
For `O=C(O)COCc1cc(Br)cc2nc(O)c(O)nc12`, the inhibition in data set [1] worked out at 4%. For the same compound, the Protection in the data set on Mus musculus [10] amounted to 0%. Besides, the concentration for half-maximal inhibition (IC50) on Glutamate NMDA receptor amounted to 110 nM.
`C[C@@H](CP(=O)(O)O)NCc1cc([N+](=O)[O-])cc2nc(O)c(O)nc12` displayed an IC50 in data set [3] of 200 nM. Further, in the data set on Mus musculus [4], the ED50 is 10 mg/kg. The inhibition in data set [6] turned out to be 15%.
The like results for `CCN(Cc1cc([N+](=O)[O-])cc2nc(O)c(O)nc12)[C@H](C)P(=O)(O)O` were, in that order, 310 nM, 26 mg/kg and 25%.
Take `C[C@@H](NCc1cc(Br)cc2nc(O)c(O)nc12)C(=O)O`: the half-inhibitory concentration (IC50) came to 4500 nM in data set [3] and 120 nM at Glutamate NMDA receptor.
For `CCN(Cc1cc(C(F)(F)F)cc2nc(O)c(O)nc12)[C@@H](C)P(=O)(O)O`, the IC50 in [3] worked out at 68 nM; on Glutamate NMDA receptor, 4000 nM. In the data set with Mus musculus [4], the ED50 came out at 10 mg/kg.
For the compound `Br.O=C(O)CNCc1cc(Br)cc2nc(O)c(O)nc12`, the results for the IC50 (in data set [3]; at Glutamate NMDA receptor) were 4700 nM and 40 nM, respectively. The Protection with Mus musculus [2] amounted to 0%.
For `O=C(O)C1CCN(Cc2cc([N+](=O)[O-])cc3nc(O)c(O)nc23)CC1`, the half-maximal inhibitory concentration (IC50) in [3] is 70 nM; on Glutamate NMDA receptor, 3900 nM. In the data set on Mus musculus [4], the ED50 turned out to be 44 mg/kg.
The compound `CC(=O)N(Cc1cc([N+](=O)[O-])cc2nc(O)c(O)nc12)C(C)P(=O)(O)O` (centres undefined) had an IC50 in data set [3] of 1300 nM. The inhibition in data set [6] came to 31%.
Consider `C[C@@H](NCc1cc([N+](=O)[O-])cc2[nH]c(=O)c(=O)[nH]c12)[P+]([O-])(O)O`, for which the IC50 in [3] came out at 170 nM; on Glutamate NMDA receptor, 32 nM. For the same compound, the ED50 in the data set with Mus musculus [4] stood at 3 mg/kg.
Compound `O=[N+]([O-])c1cc(CNCCP(=O)(O)O)c2nc(O)c(O)nc2c1` displayed an IC50 in data set [3] of 640 nM. Also, the ED50 with Mus musculus [4] amounted to 18 mg/kg. Further, the inhibition in data set [6] worked out at 8%.
In the case of `Br.C[C@H](NCCc1cc([N+](=O)[O-])cc2nc(O)c(O)nc12)C(=O)O`, in data set [3], the IC50 amounted to 340 nM. In addition, the Protection with Mus musculus [2] is given as 0%. In addition, the inhibition in [5] came to 22%.
Take `CC(OCc1cc([N+](=O)[O-])cc2nc(O)c(O)nc12)C(=O)O` (centres undefined): the figures for the IC50 (in data set [3]; at Glutamate NMDA receptor) were 1300 nM and 420 nM, respectively.
The compound `Br.CC[C@H](NCc1cc([N+](=O)[O-])cc2nc(O)c(O)nc12)C(=O)O` came in with an IC50 in data set [3] of 1200 nM. Also, the Protection in the data set on Mus musculus [2] is on record as 0%. Further, in [5], the inhibition was 34%.
With `NCc1ccc(NC(=O)C[C@@H]2CCc3cc(Cl)cc4[nH]c(=O)c(=O)n2c34)c(OCC(=O)O)c1`, the IC50 entry was “Not Active” in data set [12] and 500 nM on Glutamate NMDA receptor.

For the origin of these results see ChEMBL document CHEMBL1132024, “N-phosphonoalkyl-5-aminomethylquinoxaline-2,3-diones: in vivo active AMPA and NMDA(glycine) antagonists” (Bioorg Med Chem Lett, 1999).
